Test results: the NIST ThermoML archive (doi:10.1016/j.tca.2006.02.029)
Numbers after ± are expanded uncertainties.

Assay: excess molar enthalpy (molar enthalpy of mixing); xn = mol fraction of the nth substance listed
Details: 1065 K, 101 kPa, Liquid, Drop calorimetry

[Fe] [iron] + [Sb]
Details	excess molar enthalpy [kcal/mol]
x1 = 0.0023	0.0117 ± 0.000359
x1 = 0.0025	0.00933 ± 0.000335
x1 = 0.0049	0.0176 ± 0.000406
x1 = 0.0055	0.0233 ± 0.000478
x1 = 0.0075	0.0279 ± 0.000526
x1 = 0.008	0.0317 ± 0.00055
x1 = 0.0102	0.0359 ± 0.000598
x1 = 0.0114	0.0427 ± 0.000669
x1 = 0.0129	0.0455 ± 0.000693
x1 = 0.0135	0.0475 ± 0.000717
x1 = 0.0144	0.0535 ± 0.000765
x1 = 0.0148	0.0479 ± 0.000717
x1 = 0.0157	0.0538 ± 0.000765
x1 = 0.0187	0.0674 ± 0.000908
x1 = 0.0188	0.0624 ± 0.00086
x1 = 0.0232	0.079 ± 0.00103
x1 = 0.0271	0.0916 ± 0.00115
x1 = 0.029	0.0888 ± 0.00112
x1 = 0.0292	0.0913 ± 0.00115
x1 = 0.0316	0.105 ± 0.00129
x1 = 0.0359	0.118 ± 0.00141
x1 = 0.0407	0.131 ± 0.00155
x1 = 0.0442	0.131 ± 0.00155
x1 = 0.0445	0.128 ± 0.00153
x1 = 0.0455	0.145 ± 0.0017
x1 = 0.0591	0.165 ± 0.00189
x1 = 0.0609	0.168 ± 0.00191
x1 = 0.0762	0.201 ± 0.00225
x1 = 0.0765	0.204 ± 0.00227
x1 = 0.0942	0.229 ± 0.00263
x1 = 0.096	0.243 ± 0.00263
x1 = 0.1139	0.259 ± 0.00287
x1 = 0.1167	0.283 ± 0.00311
x1 = 0.1336	0.313 ± 0.00335
x1 = 0.1353	0.299 ± 0.00311
